Data reported in patent US20090328246A1, “USE OF THE ocp3 MUTATION TO REGULATE DROUGHT RESISTANCE IN PLANTS” (Calantia Biotech, S.L., priority 2006, published 2009).

Columns and labels:
Format in all cases: in vivo, Arabidopsis thaliana
[1] = tested on: rd29A, rd29B and rd22 water stress marker genes; assay: RT-PCR expression of rd29A, rd29B and rd22 water stress marker genes after exogenous ABA application
Text: A possibility that would explain the greater sensitivity to ABA of the ocp3 mutant as well as the increase in drought resistance could be that the mutation in said gene had caused a constitutive activation of the ABA-dependent signaling pathway and the final result of which would be the constitutive expression of dehydration-responsive genes which increase the protection levels against the damage caused by water stress and therefore this would aid the plants in better resisting this type of stress. For the purpose of studying this possibility, a molecular analysis was conducted, determining the expression levels (measured as accumulation of the corresponding mRNA by RT-PCR) of several signaling marker genes in response to dehydration, both of those genes activated by the ABA-dependent route, and of those genes the activation of which is independent of the ABA route. The rd29B and rd22 genes were used as markers of the ABA-dependent pathway, whereas rd29A was used for the ABA-independent pathway. The levels of the transcripts of these genes at different times (0, 1 h, 3 h and 6 h) were analyzed after incubating the plants in a liquid medium with 150 μM ABA.
FIG. 3. Analysis of the expression by RT-PCR of rd29A, rd29B and rd22 water stress marker genes in Col-0 and ocp3 plants, using the ELF1α gene as a control. The plants were grown in MS-Agar plates for 3 weeks and the RNAs were extracted from samples collected at different times. (A) Expression levels after exogenous 150 μM ABA application in a liquid culture. (B) Expression levels 10 minutes, 30 minutes and 1, 3 and 6 hours after subjecting the plants to dehydration.
FIG. 9. Comparison of the induction by ABA of the expression of rd29A, rd29B and rd22 water stress marker genes assayed by RT-PCR in RNA samples from Col-0, ocp3, aba2-1, abi1-1 and ocp3abi1-1 plants, and using the accumulation of the mRNA corresponding to the ELF1α gene as a control. The procedure was the same as that described for FIG. 3. […]
The semi-quantitative RT-PCR technique was used to determine the relative amounts of some mRNAs of interest. […]

ocp3 plants = assay: Effect of exogenous ABA on development of seedlings in MS-Agar plates; conditions: 0.8 μM ABA in MS-Agar; ocp3 mutant vs wt (Col-0); 17 days after seeding
Protocol: To study any possible effect of exogenous ABA application in the development of ocp3 plants, seeds of said mutant were seeded in MS-Agar plates, as well as in MS-Agar plates supplemented with an ABA concentration of 0.8 μM, and always using the wt wild type genotype (Col-0) as control plants in these experiments. […] Based on this it could therefore be deduced that the loss of function which can be attributed to the ocp3 mutation yields a hypersusceptibility to the ABA hormone and therefore the normal function of the OCP3 gene would be compatible with that of regulating any repression aspect of the ABA hormone transduction pathway, either in the sense of its synthesis or in that of its correct perception.
FIG. 2. Effect of ABA in the development of ocp3 plants compared with wt (Col-0) plants. The seeds were sterilized, stratified at 4° C. for 4 days and seeded in plates with MS-Agar medium and MS-Agar supplemented with 0.8 μM ABA. The photographs were taken 17 days after the seeding.
The plants were grown in Jiffy-7 compacted substrate (Clause-Tezier Iberica, Valencia, Spain) at 23° C. with a photoperiod of 10 hours of light and 14 of darkness. For the in vitro culture, the seeds were sterilized by adding 70% ethanol for 2 minutes and commercial 30% lye for 7 minutes. Subsequently, 5-7 washes with sterile water were performed and they were stratified at 4° C. for 4 days. […]

[2] = tested on: stomata of ocp3 and wt plants; assay: Measurement of the stomatal closure induced by ABA in epidermal peelings of rosette leaves; conditions: 100 μM ABA
Text: There are different stimuli modifying the rate as well as the degree of opening/closure of the stomata and, among them, subjecting the plants to drought or depriving them of light should be emphasized, and both signalings are always directly related to an increase in the endogenous levels of ABA, a hormone determining the closure of stomata under inductive or stress conditions. To determine if there is any defect in ABA-mediated signaling in the ocp3 mutant, the decision was made to compare the stomatal closure rate between ocp3 plants and Col-0 plants, occurring after direct ABA application in epidermal samples (peelings) obtained from rosette leaves. […] Therefore, it is inferred from these experiments that the ocp3 mutant is more sensitive to the ABA hormone and this translates into an early response to this hormone which is manifested with an accelerated stomatal closure. The greater susceptibility to ABA is consistent with the hypersusceptibility shown by the seedlings when they are germinated and grown in the presence of ABA (FIG. 2). Furthermore, said hypersusceptibility to ABA could explain the drought resistance phenotype, since drought causes increases in ABA synthesis which in turn lead to the closure of stomata to prevent the loss of water by evapotranspiration. Thus, since the ocp3 mutant is more sensitive to ABA, it would accelerate the closure of its stomata with a drought signal and this promptness in the response could provide it with an advantage to resist the metabolic drawbacks derived from water privation better or for more time.
FIG. 7. Measurement of the stomatal closure induced by ABA (100 μM) in ocp3 and wt plants. Rosette leaves were detached from 6 week-old plants of the ocp3 and Col-0 genotypes and incubated in a solution (10 mM Mes-KOH pH 6.15 and 30 mM KCl) for 2 hours to induce the opening of the stomata. Then, 100 μM ABA was added to induce the closure of the stomata. The opening of the ostiole was measured at the different times indicated in epidermal peelings of the leaves with the different genetic backgrounds. […]

OCP3 gene = assay: Real-time PCR relative expression of OCP3 after exogenous ABA application; conditions: 150 μM ABA; wt plants; evident at very short times
Protocol: In both drought and dehydration conditions, plants respond by increasing the endogenous levels of ABA, which involves the activation of a signaling cascade having as a result a series of changes at the transcriptomic level. To study the possible effect that ABA may have in transcriptional OCP3 regulation in wt plants, the relative levels of the mRNA corresponding to the OCP3 gene is measured by quantitative RT-PCR (q-RT-PCR) at different times after applying ABA, as well as after subjecting the plants to dehydration stress. The ABI1 gene was used as a control in the experiments, the expression of which is known to be induced in response to both ABA and dehydration. As can be observed in FIG. 4, both as a result of applying 150 μM ABA and after imposing a water stress to the seedlings, a sharp drop of the accumulation levels of the transcript corresponding to the OCP3 gene is observed. Said repression in the expression of the OCP3 gene as a result of the treatment with ABA or of dehydration, already becomes evident at very short times. […]
FIG. 4. Relative expression levels of OCP3 and ABI1 in response to exogenous 150 μM ABA application (A) and dehydration (B) measured by real-time PCR. […]
The samples were analyzed in triplicate and the real-time PCR reactions were performed using Sybr Green PCR Master Mix (Applied Biosystems) in an ABI PRISM 7000 sequence detector. […]

[3] = ABA application, abi1-1 and ocp3 abi1-1 double mutant, compared with wt or ocp3

CC1=CC(=O)CC(C)(C)[C@@]1(O)/C=C/C(C)=C\C(=O)O [ABA, abscisic acid]
induction and accumulation levels of rd29A, rd29B, rd22 transcripts, wt (Col-0) vs ocp3 ([1]; 150 μM ABA, liquid medium, 0, 1 h, 3 h, 6 h): no observable differences | induction of the expression of the rd29A gene [1, 3]: greatly reduced | induction of the expression of the rd29B and rd22 genes [1, 3]: virtually annulled | development of the ocp3 mutant in the presence of ABA (ocp3 plants): arrested in the first stages of germination | closure of the stomata in ocp3 plants ([2]; 30 minutes after applying, ocp3 plants): accelerated closure | closure of the stomata in wt control ([2]; 30 minutes after applying, wt (Col-0)): has still not started the process for closing its stomata | state of the stomata of ocp3 and wt plants ([2]; 2 hours after applying, ocp3 and wt plants): completely closed | accumulation levels of the OCP3 transcript (OCP3 gene): sharp drop
